We go through 1 compound from US6469177B1, “Surface active N-Halamine compounds” (Auburn University, priority 1997, dated 2002).

In this assay the test system is S. aureus (ATCC 6538). Nature of the assay: Efficacy of N-halamine compounds against S. aureus in aqueous solution (Example 20). Format: cell-based, Staphylococcus aureus. Particulars: pH 7.0; 22 ° C.; chlorine-demand-free water; 5 or 10 milligrams/liter total chlorine. The method, then:
The bacterial efficacies of the compounds against S. aureus (ATCC 6538) in chlorine-demand-free water were determine by using techniques employed previously in extensive detail by Williams et al., Appl. Environ. Microbial., 54:2583 (1987). Solutions containing 10^6 CFU final cell densities of bacteria were prepared and treated with the various disinfectant compounds described in examples 1-17 at either 5 or 10 milligrams/liter total chlorine concentration which was previously determined by titration using a stock solution with sodium thiosulfate. Aliquots were removed at several predetermined times, and the active halogen was quenched by sterile 0.02 normal sodium thiosulfate. Serial dilutions were made into sterile saline, and three 25 microliter aliquots of each dilution were applied to the dried surface of a Petri dish containing nutrient agar. After incubation at 37° C. for 48 hours, the three replicates for each dilution were counted and averaged. Control samples containing no disinfectant, or in some cases, unchlorinated precursor compounds, were handled in the same manner. […] Inactivation of the organism was considered to be at least 99.9999% when no colonies were detected in the thiosulfate-quenched aliquots.

On to `C=CC(=O)OCC1(CC)COC(=O)N1Br` (stereo not shown) [Polymer 1a-Br, 3-bromo-4-(acryloxymethyl)-4-ethyl-2-oxazolidinone], for which the “Contact Time for 6-log Inactivation of S. aureus” value is listed as less than 5 min.
